Entries after “also recorded” stand apart in the source; their conditions may differ. Where two headings read alike, the source gives them in different places. Where a SMILES comes first, the peptide text is derived from it. Bridges are numbered along the chain shown (N, C = ends). [ ]: non-standard residue; d: D form. The star is where a group is joined. Ileψ(thiazoline)Cys = CC[C@H](C)[C@H](N)C1=N[C@H](C(=O)*)CS1; dOrn = NCCC[C@@H](N)C(=O)O
Columns and labels:
[1] = tested on: proteases in the cell cultured medium; assay: Effect of protease inhibitors and additives on human AAT degradation in cell-free CMViva conditioned medium; format: biochemical, Nicotiana benthamiana; conditions: for effect of protease inhibitor on human AAT degradation: 10 mM in 7 day old cell-free CMViva conditioned medium
Method: For the investigation of human AAT stability in plant cell cultures, human AAT was added to the cell-free conditioned medium to a final concentration of 2 mg/L and distributed into 6-well-plates. The cell-free conditioned medium was prepared by centrifuging and filtering (through a 0.22 μm filter) the plant cells from 7 day old CMViva cell cultures (pH 5.1). Various protease inhibitors including 2-mercaptoethylamine-HCl (aminopeptidase inhibitor), AEBSF (serine and cysteine proteases inhibitor), benzamidine-HCl (serine protease inhibitor), and EDTA (a metal ion chelator and metalloproteinase inhibitor) were added to the conditioned medium to a final concentration of 10 mM to assess their ability to retard the degradation of human AAT. In another treatment, the conditioned medium was also heated (in boiling water for 30 minutes) or the medium pH was adjusted (from original pH 5.1 to 6.4˜6.6) prior to the addition of human AAT to investigate the human AAT stability. The 6-well-plates containing human AAT in various conditioned medium (4 mL/well) were incubated on an orbital shaker at 140 rpm and 25[…] under ambient light. Samples were taken daily and stored at −80° for further ELISA, western blotting and band shift analysis.

[2] = tested on: transgenic plant cell cultures; assay: Effect of stabilizing agents and protease inhibitors on rAAT production in transgenic plant cell cultures; format: cell-based, Nicotiana benthamiana
Method: The effect of stabilizing agents (bacitracin, PVP, BSA, Pluronic F-68, and mannitol) and protease inhibitors (2-mercaptoethylamine-HCl, AEBSF, benzamidine-HCl and EDTA) on the rAAT production in transgenic plant cell cultures was also evaluated.

[3] = transgenic plant cell cultures, data not shown

Compound | effect of protease inhibitor on human AAT degradation [1] | effect on total and functional rAAT production [2, 3] | effect on total and functional rAAT production [2] | effect of medium additive on stabilizing functional human AAT ([1]; cell-free conditioned medium, data not shown)
Cl.NCCS [2-mercaptoethylamine-HCl] | slightly inhibit human AAT degradation | no significant improvement |  | 
NCCc1ccc(S(=O)(=O)F)cc1 [AEBSF] | highest ability to stabilize functional human AAT levels; also recorded: slightly inhibit human AAT degradation | no significant improvement |  | 
O=C(O)CN(CCN(CC(=O)O)CC(=O)O)CC(=O)O [EDTA] |  |  | no significant improvement | 
CC[C@H](C)[C@H](N)C1=N[C@H](C(=O)N[C@@H](CC(C)C)C(=O)N[C@H](CCC(=O)O)C(=O)N[C@H](C(=O)N[C@H]2CCCCNC(=O)[C@H](CC(N)=O)NC(=O)[C@@H](CC(=O)O)NC(=O)[C@H](Cc3cnc[nH]3)NC(=O)[C@@H](Cc3ccccc3)NC(=O)[C@H]([C@@H](C)CC)NC(=O)[C@@H](CCCN)NC2=O)[C@@H](C)CC)CS1 [bacitracin] ({Ileψ(thiazoline)Cys}-L[dE]IK[dOrn]I[dF]H[dD]N; lactam 4-C) |  | no significant improvement |  | did not show significant effect

From patent US10421973B2, “Chemically inducible cucumber mosaic virus protein expression system” (THE REGENTS OF THE UNIVERSITY OF CALIFORNIA, priority 2006, dated 2019)
